What was measured:
Assay type in all cases: cell-based, mouse
murine B cells = assay: Murine B cell proliferation (CellTrace Violet, cell number) and class switch to IgG1 in vitro
Description: Mouse B cells were isolated from pooled single cell suspensions of spleen and peripheral lymph nodes using CD19 Microbeads (Miltenyi) or Mouse B cell Isolation Kit (Stemcell Technologies). B cells were stimulated with LPS (10 μg/mL; Sigma-Aldrich) and recombinant IL-4 cytokine (10 ng/mL; Tonbo Bioscience) with or without SCD inhibitor SSI-4, and proliferation was measured by dilution of CellTrace Violet proliferation dye (Thermo Fisher Scientific). B cells were also stimulated with anti-IgM (10 μg/mL; Jackson ImmunoResearch), anti-CD40 (10 μg/mL; BioXcell) and IL-4 (10 ng/mL; Tonbo Bioscience), or TLR ligand CpG (2.5 μM; IDT), recombinant IL-4 and IL-5 (10 ng/mL; Tonbo Bioscience) cytokines. To test the function of monounsaturated and saturated fatty acids, B cells were activated in presence of exogenous fatty acid-BSA conjugate. Palmitoleic acid (NU-CHEK PREP, INC), palmitic acid (NU-CHEK PREP, INC), stearic acid (NU-CHEK PREP, INC) were conjugated with fatty acid free BSA (Sigma-Aldrich) as described elsewhere (Wang et al., Immunity 35:871-882 (2011)). Human B cells were activated with CpG OND2006 (2.5 μM; IDT), recombinant human cytokine IL-10 ([…]; Peprotech), IL-15 (10 ng/mL; Peprotech), IL-4 (10 ng/mL; Biolegend), IL-2 (10 unit/mL) and anti-human CD40 (1 μg/mL; BioXcell). Human B cell proliferation was measured by ^3[H]-thymidine incorporation (1 μCi/mL) (American Radiolabeled Chemicals). For analysis of surface markers, cells were stained in PBS containing 1% (w/v) bovine serum albumin on ice for 30 minutes, with anti-IgG1 (RMG1-1, Biolegend), anti-CD19 (ID3, Biolegend) anti-B220 (RA3-6B2, Biolegend), anti-CD4 (GK1.5, Biolegend), anti-CD8 (53-6.7, Biolegend), anti-CD25 (PC16, Biolegend), anti-GL7 (GL-7, Biolegend), anti-CD95 (Jo2, BD Biosciences), anti-CD138 (281-2, Biolegend), anti-IgD (11-26c.2a, Biolegend), anti-PD-1 (J43, ThermoFisher), anti-IgM (II/41, ThermoFisher). Antigen specific GC response was detected with tetramer NP-phycoerythrin conjugated with PE (Biosearch Technologies). CXCR5 was stained with biotinylated anti-CXCR5 (2G8) followed by staining with streptavidin-conjugated PE (both from BD Biosciences). Cell viability was assessed using the Fixable Dye Ghost 510 (Tonbo Bioscience) or Annexin V cell apoptosis kit with 7-AAD (ThermoFisher) following the manufacturer's protocol. Phosflow staining for phospho-S6 (S235/236) was performed using Phosflow Fix/Perm kit (BD Biosciences). Mitochondrial potential was measured by staining with 20 nM TMRM (ThermoFisher) following manufacturer's instructions. Flow cytometry was performed on the LSR II, LSR Fortessa (BD Biosciences) or Attune NxT (ThermoFisher) cytometers, and analysis was performed using FlowJo software (Tree Star).

activated murine B cells = assay: Seahorse OCR / ECAR in activated murine B cells
Description: The bioenergetic activities of the OCR and ECAR were measured using a Seahorse XFe96 Extracellular Flux Analyzed following established protocols (Agilent). Briefly, B cells were seeded at 200,000 cells/well on Cell-Tak (Corning) coated XFe96 plate with fresh XF media (Seahorse XF RPMI medium containing 10 mM glucose, 2 mM L-glutamine, and 1 mM sodium pyruvate, PH 7.4; all reagents from Agilent). OCR was measured in the presence of Oligomycin (1.5 μM; Sigma-Aldrich), FCCP (1.5 μM; Sigma-Aldrich), and Rotenone (1 μM; Sigma-Aldrich)/Antimycin A (1 μM; Sigma-Aldrich) in Mito Stress assay. For ECAR measurement, B cells were seeded in XFe96 plate with fresh Seahorse XF RPMI medium with 2 mM L-glutamine (PH 7.4), and treated with glucose (10 mM; Agilent), Oligomycin (1.5 and 2-DG (50 mM; Sigma-Aldrich) orderly in Glycolysis Stress assay.

[1] = system: LC3-I/LC3-II, p-S6, p-S6K, AID; assay: Immunoblot of LC3-I/LC3-II, p-S6, p-S6K and AID in activated murine B cells
Description: For immunoblotting, cells were lysed in lysis buffer with protease and phosphatase inhibitors (Sigma-Aldrich). Protein concentration in samples were quantified by BCA assay (Thermo Fisher Scientific) before loading the samples for electrophoresis and membrane transfer. The transferred membrane was blocked with TBST (0.1% Tween 20) containing 5% BSA for 1 hour at room temperature. The membrane was incubated with primary antibodies overnight including anti-p-S6 (Ser235/Ser236, D57.2.2E; Cell Signaling), anti-p-p70 S6 kinase (Thr389, 108D2; Cell Signaling), anti-p-4E-BP1 (Thr37/46, 236B4; Cell Signaling), anti-LC3α/β (G-4; Santa Cruz); anti-p-ULK1 (Ser757, D706U; Cell Signaling), anti-AID (EK2 5G9; Cell Signaling), anti-β-actin (13E5; Sigma-Aldrich), and anti-SCD2 (H-12; Santa Cruz). Then, the membrane was washed and incubated with the corresponding secondary antibody for subsequent enhanced chemiluminescence (ECL; Thermo Fisher) exposure. The band intensity of all the immunoblot was analyzed by ImageJ software.

Chop, Atf4, Sqstm1 = assay: RT-PCR of ER stress-related genes in activated B cells
Description: For mRNA analysis, total mRNA was isolated from mouse and human B cells by RNeasy Micro kit (Qiagen), reverse transcribed from mRNA to cDNA for subsequent real-time PCR analysis. Scd1, Scd2, Fasn, Acaca, Chop, Atf4, Sqstm1 in mouse B cells and Scd, Fasn, Acaca expression in human B cells were measured by real-time PCR with a Bio-Rad Realtime PCR system. β-actin expression was used as control.

[2] = LPS/IL-4 activated, fatty acid-BSA conjugate, no inhibitor

Structure (SMILES)	IgG1 class switch (murine B cells; LPS/IL-4, SCD inhibitor SSI-4 alone)	proliferation of mouse B cells (CTV dilution) (murine B cells; LPS/IL-4 activated, SCD inhibitor alone)	B cell glycolysis (ECAR) under SCD inhibition (activated murine B cells; SSI-4, 48 hours)	B cell respiration (OCR) under SCD inhibition (activated murine B cells; SSI-4, 48 hours)	levels of p-S6K and p-S6 ([1]; SSI-4 treated B cells)	LC3-II/LC3-I ratio ([1]; SSI-4 treated B cells vs control cells)	expression of activation-induced cytidine deaminase (AID) ([1]; SSI-4 treatment)	ER stress-related genes Chop, Atf4, Sqstm1 (Chop, Atf4, Sqstm1; SSI-4 treatment)	rescue of proliferation defects caused by SCD inhibition (murine B cells; 100 nM SSI-4 plus exogenous 100 μM OA, 3 days, LPS/IL-4/IL-5, anti-IgM/anti-CD40/IL-4 or CpG/IL-4/IL-5)	rescue of proliferation and IgG1 class switch in SCD1/2 deficient B cells (murine B cells; B cells from Scd1 and Scd2 deficient mice, LPS/IL-4)	rescue of proliferation and IgG1 class switch upon SSI-4 treatment (murine B cells; LPS/IL-4, SSI-4 with exogenous fatty acid)	B cell proliferation, exogenous fatty acid alone (murine B cells; [2])	IgG1 class switch, exogenous fatty acid alone (murine B cells; [2])	OA mediated increase of basal respiration with titrated doses (activated murine B cells; exogenous OA 1, 10, 20 and 50)	glycolytic capacity of activated murine B cells (activated murine B cells; exogenous fatty acid, 48 h, Glycolysis Stress test)	B cell respiration (OCR) (activated murine B cells; exogenous fatty acid, 48 h, CpG/IL-4/IL-5 (PO: CpG and anti-IgM/anti-CD40) stimulation)	levels of p-S6K and p-S6 with exogenous OA ([1]; SSI-4 treated or SCD1/2 deficient B cells plus OA)	increased LC3-II/LC3-I ratio with exogenous OA ([1]; SSI-4 treated or SCD deficient B cells plus OA)	ER stress-related gene upregulation with exogenous OA (Chop, Atf4, Sqstm1; SSI-4 plus OA)
CNC(=O)c1ccnc(NC(=O)N2CCC(Oc3ccccc3Cl)CC2)c1 [SSI-4, 2-{[4-(2-Chlorophenoxy)piperidine-1-carbonyl]amino}-N-methylpyridine-4-carboxamide]	strongly suppressed	capable of inhibiting B cell proliferation	strongly suppressed	strongly suppressed	decreased	substantial increase	Reduced expression	increased											
CCCCCCCC/C=C\CCCCCCCC(=O)O [OA, oleic acid]									able to rescue the proliferation defects	fully restored	fully restore both parameters	further enhanced	further enhanced	dose dependent	increased the glycolytic capacity	enhanced B cell respiration	restored	completely rescued	reduced these genes upregulation

Reference: patent US11833144B2, “Treating autoimmune disease” (Mayo Foundation for Medical Education and Research, priority 2020, dated 2023)
